Tested on: progenerating CD34+ stock cells obtained from human bone marrow
Test: Cytolysis of CD34+ progenerating stock cells after chemotherapy treatment (SYTOX green)
Format: cell-based
Settings: propolis 0 μg/ml (Control)
Description: The objective of the test is to evaluate the effect of the propolis on the cytolysis of progenerating CD34+ stock cells obtained from human bone marrow following the application of chemotherapy treatment (epirubicin and taxotere).
The culture medium that is used is as follows: IMDM, 15 SVF, SCF (50 ng/ml), TPO (50 ng/ml), FK (50 ng/ml).
The test protocol is described below.
On D3: thawing and seeding with 50,000 cells/ml in a flask ([…])
On D0: marking and seeding with 6,000 cells/well in a 96-well plate
Between D0 and D4: • Treatment of cells with a propolis extract (Example 1) between D0 and D3 with the following doses: 0, 0.5, 1, 4, 10 and 20 μg/ml • Treatment of cells with chemotherapy agents (epirubicin at […] and taxotere […]) between D1 and D3
On D5: Marking with 5 nM of SYTOX green, and measurement of cytolysis.
The obtained results that are presented in the table below provide the percentage of CD34+ progenerating stock cells that is cytolyzed on D5.

Structure (SMILES)	percentage of CD34+ progenerating stock cells that is cytolyzed on D5 (Taxotere 2.80.10^6 M D1-D3 alone) [%]	percentage of CD34+ progenerating stock cells that is cytolyzed on D5 (Epirubicin 4.74.10^6 M D1-D3 alone) [%]
CC(=O)O[C@@]12CO[C@@H]1C[C@H](O)[C@@]1(C)C(=O)[C@H](O)C3=C(C)[C@@H](OC(=O)[C@H](O)[C@@H](NC(=O)OC(C)(C)C)c4ccccc4)C[C@@](O)([C@@H](OC(=O)c4ccccc4)[C@H]21)C3(C)C [Taxotere]	65.47	
COc1cccc2c1C(=O)c1c(O)c3c(c(O)c1C2=O)C[C@@](O)(C(=O)CO)C[C@@H]3O[C@H]1C[C@H](N)[C@@H](O)[C@H](C)O1 [Epirubicin]		53.93

From patent US10463700B2, “Use of propolis for combating the side effects of chemotherapy” (POLLENERGIE, priority 2013, dated 2019)
